Assays:
HepG2 [1] = assay: Cytotoxicity against human HepG2 cells assessed as decrease in cell viability after 72 hrs by MTT assay; assay type: functional, cell-based
A549 [2] = assay: Cytotoxicity against human A549 cells assessed as decrease in cell viability after 72 hrs by MTT assay; assay type: functional, cell-based; conditions: A549, 72 h
MCF7 [3] = assay: Cytotoxicity against human MCF7 cells assessed as decrease in cell viability after 72 hrs by MTT assay; assay type: functional, cell-based
PC-3 = assay: Cytotoxicity against human PC3 cells assessed as decrease in cell viability after 72 hrs by MTT assay; assay type: functional, cell-based
A549 [4] = assay: Induction of apoptosis in human A549 cells assessed as viable cells at 0.5 uM after 48 hrs by Annexin V-FITC/propidium iodide-staining based by flow cytometric analysis (reference value: 93.27%); assay type: functional; conditions: A549, 48 h, read-out: Activity
HepG2 [5] = assay: Potency index, ratio of afatinib IC50 to compound IC50 for human HepG2 cells; assay type: functional
A549 [6] = assay: Induction of apoptosis in human A549 cells assessed as early apoptotic cells at 0.5 uM after 48 hrs by Annexin V-FITC/propidium iodide-staining based by flow cytometric analysis (reference value: 3.40%); assay type: functional
[7] = biological target: Epidermal growth factor receptor (Homo sapiens, UniProt P00533); assay: Inhibition of EGFR (unknown origin) using FAM-labeled peptide as substrate measured after 10 mins by mobility shift assay
Sequence of Epidermal growth factor receptor (P00533 whole entry): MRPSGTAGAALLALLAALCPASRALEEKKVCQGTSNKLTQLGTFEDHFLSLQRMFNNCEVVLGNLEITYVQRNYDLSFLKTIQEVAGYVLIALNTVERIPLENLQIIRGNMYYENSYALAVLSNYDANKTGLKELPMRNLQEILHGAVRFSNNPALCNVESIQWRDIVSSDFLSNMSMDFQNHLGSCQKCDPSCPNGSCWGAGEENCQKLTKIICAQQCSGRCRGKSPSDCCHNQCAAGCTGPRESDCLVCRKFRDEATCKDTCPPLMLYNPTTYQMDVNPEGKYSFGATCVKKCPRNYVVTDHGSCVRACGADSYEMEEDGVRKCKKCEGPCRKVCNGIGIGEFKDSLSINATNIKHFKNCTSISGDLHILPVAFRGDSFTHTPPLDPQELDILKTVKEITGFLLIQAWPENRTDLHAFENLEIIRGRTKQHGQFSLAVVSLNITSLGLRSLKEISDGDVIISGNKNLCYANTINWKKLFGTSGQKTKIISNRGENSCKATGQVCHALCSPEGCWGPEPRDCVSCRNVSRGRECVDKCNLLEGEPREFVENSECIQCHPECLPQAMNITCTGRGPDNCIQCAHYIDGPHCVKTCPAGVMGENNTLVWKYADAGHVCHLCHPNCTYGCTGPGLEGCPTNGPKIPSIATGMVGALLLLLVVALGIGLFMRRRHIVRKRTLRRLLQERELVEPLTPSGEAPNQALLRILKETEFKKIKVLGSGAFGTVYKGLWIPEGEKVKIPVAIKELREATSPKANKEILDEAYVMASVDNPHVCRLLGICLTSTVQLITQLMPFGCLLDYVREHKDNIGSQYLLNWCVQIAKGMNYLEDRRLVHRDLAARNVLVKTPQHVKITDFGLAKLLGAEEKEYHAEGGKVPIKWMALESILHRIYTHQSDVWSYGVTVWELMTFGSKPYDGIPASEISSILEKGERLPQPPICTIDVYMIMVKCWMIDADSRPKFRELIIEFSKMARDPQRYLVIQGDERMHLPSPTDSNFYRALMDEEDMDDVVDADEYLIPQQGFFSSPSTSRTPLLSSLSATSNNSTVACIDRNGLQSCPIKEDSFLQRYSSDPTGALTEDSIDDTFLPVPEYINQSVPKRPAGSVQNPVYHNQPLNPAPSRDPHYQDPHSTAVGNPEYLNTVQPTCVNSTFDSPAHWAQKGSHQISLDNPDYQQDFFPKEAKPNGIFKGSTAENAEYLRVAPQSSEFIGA

A549 [8] = assay: Induction of apoptosis in human A549 cells assessed as viable cells at 1 uM after 48 hrs by Annexin V-FITC/propidium iodide-staining based by flow cytometric analysis (reference value: 93.27%); assay type: functional; conditions: A549, 48 h, read-out: Activity
A549 [9] = assay: Induction of apoptosis in human A549 cells assessed as early apoptotic cells at 1 uM after 48 hrs by Annexin V-FITC/propidium iodide-staining based by flow cytometric analysis (reference value: 3.40%); assay type: functional
A549 [10] = assay: Induction of apoptosis in human A549 cells assessed as late apoptotic cells at 0.5 uM after 48 hrs by Annexin V-FITC/propidium iodide-staining based by flow cytometric analysis (reference value: 2.69%); assay type: functional
A549 [11] = assay: Induction of apoptosis in human A549 cells after 48 hrs by Annexin V-FITC/propidium iodide-staining based by flow cytometric analysis; assay type: functional, cell-based
MCF7 [12] = assay: Potency index, ratio of afatinib IC50 to compound IC50 for human MCF7 cells; assay type: functional
A549 [13] = assay: Induction of apoptosis in human A549 cells assessed as necrotic cells at 1 uM after 48 hrs by Annexin V-FITC/propidium iodide-staining based by flow cytometric analysis (reference value: 0.64%); assay type: functional
A549 [14] = assay: Induction of apoptosis in human A549 cells assessed as necrotic cells at 0.5 uM after 48 hrs by Annexin V-FITC/propidium iodide-staining based by flow cytometric analysis (reference value: 0.64%); assay type: functional
A549 [15] = assay: Induction of apoptosis in human A549 cells assessed as late apoptotic cells at 1 uM after 48 hrs by Annexin V-FITC/propidium iodide-staining based by flow cytometric analysis (reference value: 2.69%); assay type: functional
[16] = Homo sapiens, HepG2, 72 h, read-out: IC50
[17] = Homo sapiens, MCF7, 72 h, read-out: IC50
[18] = Homo sapiens, PC-3, 72 h, read-out: IC50

Row | Compound | IC50 (HepG2 [1]; [16]) | IC50 (A549 [2]) | IC50 (MCF7 [3]; [17]) | IC50 (PC-3; [18]) | other results
1 | COc1cc2ncnc(Nc3ccc(F)c(Cl)c3)c2cc1NC(=O)N/N=C/c1ccc(O)cc1 | 26.3 µM | 7.61 µM | 28.6 µM | 16.6 µM | –
2 | COc1cc2ncnc(Nc3ccc(F)c(Cl)c3)c2cc1NC(=O)N/N=C/c1ccc(OC)c(OC)c1OC | 31.2 µM | 32.8 µM | – | 29.3 µM | IC50 (MCF7 [3]; mcf7): Not Active
3 | O=C(N/N=C/c1ccc(F)cc1)Nc1cc2c(Nc3ccc(F)c(Cl)c3)ncnc2cc1O[C@H]1CCOC1 | – | 35.1 µM | 28.2 µM | – | IC50 (HepG2 [1]; hepg2): Not Active; IC50 (PC-3; pc-3): Not Active
4 | N#Cc1ccc(/C=N/NC(=O)Nc2cc3c(Nc4ccc(F)c(Cl)c4)ncnc3cc2O[C@H]2CCOC2)cc1 | 26.4 µM | 29.1 µM | – | 28.1 µM | –
5 | O=C(N/N=C/c1ccc(O)c(Br)c1)Nc1cc2c(Nc3ccc(F)c(Cl)c3)ncnc2cc1O[C@H]1CCOC1 | 0.66 µM | 4.31 µM | 2.69 µM | 5.23 µM | –
6 | CCN(CC)c1ccc(/C=N/NC(=O)Nc2cc3c(Nc4ccc(F)c(Cl)c4)ncnc3cc2OC)c(O)c1 | 29.3 µM | 27.3 µM | 27.3 µM | 34.3 µM | –
7 | O=C(N/N=C/c1ccc([N+](=O)[O-])cc1)Nc1cc2c(Nc3ccc(F)c(Cl)c3)ncnc2cc1O[C@H]1CCOC1 | 35.3 µM | 31.2 µM | – | 33.5 µM | IC50 (MCF7 [3]; mcf7): Not Active
8 | COc1cc2ncnc(Nc3ccc(F)c(Cl)c3)c2cc1NC(=O)N/N=C/c1ccc(O)cc1O | 32.1 µM | 31.4 µM | 36.2 µM | 29.5 µM | –
9 | COc1cc2ncnc(Nc3ccc(F)c(Cl)c3)c2cc1NC(=O)N/N=C/c1ccc(O)c(Br)c1 | 23.8 µM | 28.6 µM | – | 15.3 µM | IC50 (MCF7 [3]; mcf7): Not Active
10 | COc1cc2ncnc(Nc3ccc(F)c(Cl)c3)c2cc1NC(=O)N/N=C/c1ccc(F)cc1 | 31.1 µM | 26.6 µM | 35.1 µM | 36.5 µM | –
11 | O=C(N/N=C/c1ccc(F)cc1Cl)Nc1cc2c(Nc3ccc(F)c(Cl)c3)ncnc2cc1O[C@H]1CCOC1 | 26.1 µM | 27.2 µM | 32.2 µM | 28.4 µM | –
12 | COc1cc2ncnc(Nc3ccc(F)c(Cl)c3)c2cc1NC(=O)N/N=C/c1cccc(Cl)c1Cl | 26.1 µM | 35.3 µM | 28.7 µM | 24.4 µM | –
13 | COc1cc2ncnc(Nc3ccc(F)c(Cl)c3)c2cc1NC(=O)N/N=C/c1cc(C(C)(C)C)c(O)c(C(C)(C)C)c1 | 26.8 µM | 37.1 µM | 28.3 µM | 28.7 µM | –
14 | O=C(N/N=C/c1cccc(Cl)c1Cl)Nc1cc2c(Nc3ccc(F)c(Cl)c3)ncnc2cc1O[C@H]1CCOC1 | 16.9 µM | 25 µM | – | 27.4 µM | IC50 (MCF7 [3]; mcf7): Not Active
15 | CC(C)(C)c1cc(/C=N/NC(=O)Nc2cc3c(Nc4ccc(F)c(Cl)c4)ncnc3cc2O[C@H]2CCOC2)cc(C(C)(C)C)c1O | 12.5 µM | 18.9 µM | 14.5 µM | 13.1 µM | –
16 | COc1cc2ncnc(Nc3ccc(F)c(Cl)c3)c2cc1NC(=O)N/N=C/c1ccc(C#N)cc1 | 34.1 µM | 32.2 µM | – | 36.5 µM | –

Row | Compound | IC50 (HepG2 [1]; [16]) | IC50 (A549 [2]) | IC50 (MCF7 [3]; [17]) | IC50 (PC-3; [18]) | other results
17 | O=C(N/N=C/c1cc(Br)c(O)c(Br)c1)Nc1cc2c(Nc3ccc(F)c(Cl)c3)ncnc2cc1O[C@H]1CCOC1 | 2.74 µM | 8.91 µM | 5.91 µM | 6.16 µM | –
18 | COc1cc(/C=N/NC(=O)Nc2cc3c(Nc4ccc(F)c(Cl)c4)ncnc3cc2O[C@H]2CCOC2)cc(OC)c1OC | 31.2 µM | 26.4 µM | 26.5 µM | 29.6 µM | –
19 | COc1ccc(/C=N/NC(=O)Nc2cc3c(Nc4ccc(F)c(Cl)c4)ncnc3cc2OC)cc1 | 21.3 µM | 28.1 µM | 8.14 µM | 16.5 µM | –
20 | O=C(N/N=C/c1ccc(O)cc1)Nc1cc2c(Nc3ccc(F)c(Cl)c3)ncnc2cc1O[C@H]1CCOC1 | 0.07 µM | 1.32 µM | 0.91 µM | 4.89 µM | viability at 0.5 µM (A549 [4]): 83.9%; Ratio IC50 (HepG2 [5]): 19; Activity (A549 [6]): 6.81%; IC50 [7]: 0.056 µM; viability at 1 µM (A549 [8]): 77.9%; Activity (A549 [9]): 8.81%; Activity (A549 [10]): 6.94%; Activity (A549 [11]): Dose-dependent effect; Ratio IC50 (MCF7 [12]): 2.9; Activity (A549 [13]): 4.37%; Activity (A549 [14]): 2.37%; Activity (A549 [15]): 8.94%
21 | CCN(CC)c1ccc(/C=N/NC(=O)Nc2cc3c(Nc4ccc(F)c(Cl)c4)ncnc3cc2O[C@H]2CCOC2)c(O)c1 | 15.7 µM | 15.7 µM | 15.6 µM | 4.59 µM | –
22 | CN(C)C/C=C/C(=O)Nc1cc2c(Nc3ccc(F)c(Cl)c3)ncnc2cc1O[C@H]1CCOC1 [AFATINIB] | – | 1.4 µM | – | 3.96 µM | –
23 | O=C(N/N=C/c1cccc(Br)c1)Nc1cc2c(Nc3ccc(F)c(Cl)c3)ncnc2cc1O[C@H]1CCOC1 | 32.3 µM | 10.7 µM | 12.4 µM | 15.5 µM | –
24 | COc1cc2ncnc(Nc3ccc(F)c(Cl)c3)c2cc1NC(=O)N/N=C/c1cc(Br)c(O)c(Br)c1 | 36.8 µM | 34.6 µM | 30.2 µM | 41.5 µM | –
25 | COc1ccc(/C=N/NC(=O)Nc2cc3c(Nc4ccc(F)c(Cl)c4)ncnc3cc2O[C@H]2CCOC2)c(OC)c1OC | 29.3 µM | 25.2 µM | 33.8 µM | 25.6 µM | –
26 | COc1cc2ncnc(Nc3ccc(F)c(Cl)c3)c2cc1NC(=O)N/N=C/c1ccc([N+](=O)[O-])cc1 | 34.1 µM | 35.1 µM | 36.8 µM | 32.4 µM | –
27 | O=C(N/N=C/c1ccc(O)cc1O)Nc1cc2c(Nc3ccc(F)c(Cl)c3)ncnc2cc1O[C@H]1CCOC1 | 4.53 µM | 9.36 µM | 5.35 µM | 7.54 µM | –
28 | COc1ccc(/C=N/NC(=O)Nc2cc3c(Nc4ccc(F)c(Cl)c4)ncnc3cc2O[C@H]2CCOC2)cc1 | 28.8 µM | 33.1 µM | 27.3 µM | 34.1 µM | –
29 | COc1cc2ncnc(Nc3ccc(F)c(Cl)c3)c2cc1NC(=O)N/N=C/c1cccc(Br)c1 | – | 28.1 µM | 27.1 µM | – | IC50 (HepG2 [1]; hepg2): Not Active; IC50 (PC-3; pc-3): Not Active
30 | COc1cc2ncnc(Nc3ccc(F)c(Cl)c3)c2cc1NC(=O)N/N=C/c1cc(OC)c(OC)c(OC)c1 | 30.1 µM | 32.1 µM | 30.7 µM | 36.5 µM | –
31 | COc1cc2ncnc(Nc3ccc(F)c(Cl)c3)c2cc1NC(=O)N/N=C/c1ccc(F)cc1Cl | 29.2 µM | 28.2 µM | – | 25.7 µM | IC50 (MCF7 [3]; mcf7): Not Active
